According to patent US20200268690A1, “TOPICAL COMPOSITIONS” (Atossa Therapeutics, Inc., priority 2017, published 2020):
Where two headings read alike, the source gives them in different places.

Columns and labels:
[1] = cited from earlier work
[2] = test system: patients; conditions: oral tamoxifen; cited from earlier work
[3] = Solubility of endoxifen free base in polar organic solvents (HPLC-UV); type: physicochemical; conditions: for Z/E Ratio: room temperature
Description: (Z)-endoxifen free base was synthesized as described above in Example 1. (Z)-endoxifen was solubilized in various solvents as provided in Table 1, and tested for physical and chemical stability in solution. The solutions were prepared in ˜1 ml batches typically for solubility and stability testing. The mixture was stirred overnight on a rotisserie at room temperature. The next, day, the suspension was filtered using a syringe filter (0.2 um pore size GHP membrane). The filtrated solution was then analyzed for the concentration of (Z)-endoxifen and (E)-endoxifen as using a validated HPLC-UV method as described below.
(§1) HPLC-UV. Briefly, (E)- and (Z)-endoxifen were analyzed by High Performance Liquid Chromatography, HPLC (instrument: Agilent 1100) using a UV detector (Agilent). Chromatographic resolution was obtained using a Luna Phenyl Hexyl Column ([…]×150 mm) at a column temperature of 40° C. Samples were injected in an injection volume of 10 ul and run at a flow rate of 1.0 ml/min. The mobile phase system used consisted of: A) water with 10 mM ammonium formate (HCOONH4) with 0.03% formic acid and B) Methanol with 10 mM ammonium formate (HCOONH4).
UV detection of (E)-endoxifen and (Z)-endoxifen isomers was performed at 243 nm with a run time of 30 minutes. Retention times for (E)-endoxifen and (Z)-endoxifen were 15.14 m and 16.25 m respectively. […] The solubility of (Z)-endoxifen ranged from about 1 mg/g of solution to over 30 mg/g of solution.

[4] = Accelerated stability of (Z)-endoxifen free base in polar organic solvents in the absence and presence of human cadaver skin; type: physicochemical; conditions: for % Potency: relative to initiation of study; for potency and stability in presence of skin compared with absence of skin: in the solvents of Table 3, 45° C., after 2 days
Description: as §1
The stability studies of endoxifen free base in various pure polar organic solvents/MPEs were performed as described below. Accelerated stability studies of (Z)-endoxifen free base in solvents/MPEs were performed over a course of 2 days at 45° C. in both the presence and the absence of human cadaver skin to assess the degree to which the (Z)-endoxifen conversion to (E)-endoxifen by isomerization and or chemical degradation of the endoxifen is accelerated upon contact with skin and skin components. (Z)-Endoxifen solutions at […] of saturation concentrations were prepared in 1 ml batches in solvents as listed below in the Table 3. The potencies of (Z)-endoxifen and (E)-endoxifen were determined by HPLC-UV analysis as described above. Potency results are shown compared with potencies measured when the sample were stored at the initiation of stability study.

[5] = in Diethyl Sebacate, 45° C. + skin, 2 days
[6] = in Diethyl Sebacate, 45° C., 2 days
[7] = in Diethylene glycol monoethyl ether, 45° C. + skin, 2 days
[8] = in Diethylene glycol monoethyl ether, 45° C., 2 days
[9] = in Diisopropyl Adipate, 45° C. + skin, 2 days
[10] = in Diisopropyl Adipate, 45° C., 2 days
[11] = in Dimethyl Isosorbide, 45° C. + skin, 2 days
[12] = in Dimethyl Isosorbide, 45° C., 2 days
[13] = in Dimethyl Sulfoxide, 45° C. + skin, 2 days
[14] = in Dimethyl Sulfoxide, 45° C., 2 days
[15] = in Dipropylene Glycol, 45° C. + skin, 2 days
[16] = in Dipropylene Glycol, 45° C., 2 days
[17] = in Isopropanol, 45° C. + skin, 2 days
[18] = in Isopropyl Myristate, 45° C. + skin, 2 days
[19] = in Isopropyl Myristate, 45° C., 2 days
[20] = in PEG 300, 45° C. + skin, 2 days

| SMILES | % Potency [4, 5] [%] | % Potency [4, 6] [%] | % Potency [4, 7] [%] | % Potency [4, 8] [%] | % Potency [4, 9] [%] | % Potency [4, 10] [%] | % Potency [4, 11] [%] | % Potency [4, 12] [%] | % Potency [4, 13] [%] | % Potency [4, 14] [%] | % Potency [4, 15] [%] | % Potency [4, 16] [%] | % Potency [4, 17] [%] | % Potency ([4]; in Isopropanol, 45° C., 2 days) [%] | % Potency [4, 18] [%] | % Potency [4, 19] [%] | % Potency [4, 20] [%] | % Potency ([4]; in PEG 300, 45° C., 2 days) [%] | potency and stability in presence of skin compared with absence of skin [4] | also measured |
| --- | --- | --- | --- | --- | --- | --- | --- | --- | --- | --- | --- | --- | --- | --- | --- | --- | --- | --- | --- | --- |
| CC/C(=C(\c1ccc(O)cc1)c1ccc(OCCNC)cc1)c1ccccc1.Cl [(Z)-endoxifen HCl] |  |  |  |  |  |  |  |  |  |  |  |  |  |  |  |  |  |  |  | t90 ([1]; 45° C.): 9 days; (Z)-endoxifen HCl remaining after degradation ([1]; aqueous medium, 45° C., day 15, from 98%): 75%; t90 ([1]; room temperature): 149 days |
| CC/C(=C(\c1ccccc1)c1ccc(OCCN(C)C)cc1)c1ccccc1 [tamoxifen, (Z)-2-[4-(1,2-diphenyl-1-butenyl)phenoxy]-N,N-dimethylethanamine] |  |  |  |  |  |  |  |  |  |  |  |  |  |  |  |  |  |  |  | patients with elevated liver function tests, especially SGOT/AST [2]: about 5% |
| CC/C(=C(\c1ccc(O)cc1)c1ccc(OCCNC)cc1)c1ccccc1 [Endoxifen free base, (E/Z)-4-[1-[4-[2-(Methylamino)ethoxy]phenyl]-2-phenyl-1-buten-1-yl]-phenol] |  |  |  |  |  |  |  |  |  |  |  |  |  |  |  |  |  |  |  | solubility (in words) ([3]; in polar organic solvents/MPEs such as DMSO, ethanol, diethylene monoethyl ether, and oleic acid): significantly soluble; Z/E Ratio ([3]; saturated solution in Capric Trigylceride (Solvent No. 15)): 0.63; Z/E Ratio ([3]; saturated solution in Diethyl Sebacate (Solvent No. 2)): 1.7; Z/E Ratio ([3]; saturated solution in Diethylene glycol monoethyl ether (Solvent No. 10)): 1.89; Z/E Ratio ([3]; saturated solution in Diisopropyl Adipate (Solvent No. 3)): 1.87; Z/E Ratio ([3]; saturated solution in Dimethyl Isosorbide (Solvent No. 4)): 1.82; Z/E Ratio ([3]; saturated solution in Dimethyl Sulfoxide (Solvent No. 1)): 1.87; Z/E Ratio ([3]; saturated solution in Dipropylene Glycol (Solvent No. 5)): 1.82; Z/E Ratio ([3]; saturated solution in Ethanol (Solvent No. 6)): 1.72; Z/E Ratio ([3]; saturated solution in Isopropanol (Solvent No. 7)): 1.88; Z/E Ratio ([3]; saturated solution in Isopropyl Myristate (Solvent No. 12)): 1.09; Z/E Ratio ([3]; saturated solution in Oleic Acid (Solvent No. 14)): 1.02; Z/E Ratio ([3]; saturated solution in PEG300 (Solvent No. 8)): 1.77; Z/E Ratio ([3]; saturated solution in PEG 400 (Solvent No. 11)): 1.78; Z/E Ratio ([3]; saturated solution in Propylene Glycol (Solvent No. 9)): 1.60; Z/E Ratio ([3]; saturated solution in Soybean Oil (Solvent No. 13)): 0.76; stability (in words) ([4]; dissolved in dimethyl isosorbide and isopropyl myristate, 45° C., 2 days): poor stability |

More lines, main results first:

| % Potency [4, 5] [%] | % Potency [4, 6] [%] | % Potency [4, 7] [%] | % Potency [4, 8] [%] | % Potency [4, 9] [%] | % Potency [4, 10] [%] | % Potency [4, 11] [%] | % Potency [4, 12] [%] | % Potency [4, 13] [%] | % Potency [4, 14] [%] | % Potency [4, 15] [%] | % Potency [4, 16] [%] | % Potency [4, 17] [%] | % Potency ([4]; in Isopropanol, 45° C., 2 days) [%] | % Potency [4, 18] [%] | % Potency [4, 19] [%] | % Potency [4, 20] [%] | % Potency ([4]; in PEG 300, 45° C., 2 days) [%] | potency and stability in presence of skin compared with absence of skin [4] | SMILES | also measured |
| --- | --- | --- | --- | --- | --- | --- | --- | --- | --- | --- | --- | --- | --- | --- | --- | --- | --- | --- | --- | --- |
| 99 | 101 | 98 | 100 | 101 | 100 | 16 | 15 | 101 | 101 | 95 | 95 | 106 | 106 | 68 | 67 | 92 | 91 | maintained potency and stability | CC/C(=C(/c1ccc(O)cc1)c1ccc(OCCNC)cc1)c1ccccc1 [(E)-endoxifen free base] |  |
| 94 | 100 | 98 | 100 | 99 | 99 | 17 | 16 | 101 | 102 | 94 | 93 | 105 | 105 | 63 | 65 | 92 | 91 | maintained potency and stability | CC/C(=C(\c1ccc(O)cc1)c1ccc(OCCNC)cc1)c1ccccc1 [(Z)-endoxifen free base, (Z)-4-(1-(4-(2-(methylamino)ethoxy)phenyl)-2-phenylbut-1-enyl)phenol] |  |
